In one assay the test system is telomerase. Nature of the assay: Quantitative telomerase detection (telomeric repeat formation + PCR) in skin fibroblasts (donor four AG7308, donor one AG14271) with or without UVB. It counts as cell-based, human. How it is done:
Culture media: Cells were grown in Minimal Essential Medium supplemented with 10% fetal bovine serum, 2 mM L-glutamine, 2 mM Glutamax I, and 1× MEM non-essential amino acids solution. Cells were washed in the same medium, but without the fetal bovine serum. […] All cultures were incubated at 37° C. with 5% CO2 in a humidified chamber. Seeding of cells: […] Three wells were seeded per test condition or control. Experimental phase: On Day 3, wells were washed 1× with 2 mls medium, fed back 2 mls medium without fetal bovine serum and preincubated for 30-60 minutes before challenge with test or control conditions. […] The green tea polyphenols used were Premier Green Tea Extract Lot #10783, obtained from Pharma Cosmetix Research, LLC (Richmond, Va.). The Green Tea extract was measured into a stock solution of the above described Minimal Essential Media+1% Fetal Bovine Serum in a w/v ratio and then serially diluted into the testing concentrations with MEM+1% Fetal Bovine Serum. Three conditions were tested: […] UVB exposed and unexposed cells without test condition were used as controls. […] Cells from each test and control parameter were then trypsinized, collected by centrifugation, washed 3 times in PBS, and a cell count made using a hemacytometer. The final pellet was stored at −80° C. until processed further. UVB exposure: […] Cells were exposed from the bottom of the culture dish. The UVB dose delivered to the cells was adjusted for interference from the plastic in the culture dish. […] Extract from the cell pellets stored at −80 C post experimental phase was prepared for PCR according to the instructions in the Allied Biotech, Inc, Quantitative Telomerase Detection Kit. Briefly, pellets were thawed and immediately resuspended in 200 ul 1× Lysis Buffer per […]. The suspension was incubated on ice for 30 minutes, then microcentrifuged at 12,000×g for 30 minutes at 4° C. The supernatant was aliquoted and stored at −80° C. Detection of Telomerase: The extract from the cells allows for determination of telomerase activity by coupling the extract's ability to form telomeric repeats onto an oligonucleotide substrate and the resultant extended product are amplified using Polymerase Chain Reaction. These products are then visualized with SYBR green a fluorescent detection agent that emits green fluorescence when bound to the double stranded DNA product. […] The samples were run in a BioRad iCycler for 20 minutes at 25° C. to complete the telomerase reaction. The PCR initial activation step followed immediately and was of 10 minute duration at […]. […] The SYBR green detection occurred during the extension phase. Telomerase Detection Results: […] The raw analysis is provided in DATA TABLE 1. […] Culture media: Cells were grown in Minimal Essential Medium supplemented with 10% fetal bovine serum, 2 mM L-glutamine, 2 mM Glutamax I, and 1×MEM non-essential amino acids solution. Cells were washed in the same medium, but without the fetal bovine serum. […] All cultures were incubated at 37° C. with 5% CO2 in a humidified chamber. Seeding of cells: […] Three wells were seeded per test condition or control. Experimental phase: On Day 3, wells were washed 1× with 2 mls medium, fed back 2 mls medium without fetal bovine serum and preincubated for 30-60 minutes before challenge with test or control conditions. […] The 1% stock solution was also diluted with MEM+1% FBS until the testing concentrations were reached. Three conditions were tested: […] UVB exposed and unexposed cells without test condition were used as controls. […] Cells from each test and control parameter were then trypsinized, collected by centrifugation, washed 3 times in PBS, and a cell count made using a hemacytometer. The final pellet was stored at −80° C. until processed further. UVB exposure: […] Cells were exposed from the bottom of the culture dish. The UVB dose delivered to the cells was adjusted for interference from the plastic in the culture dish. […]

Assay [1] deals with TERT, TPP1, TERF1, TERF2, TINF2, POT1. Briefly: qPCR primer assays of telomere complex genes in skin fibroblasts AG07999. It counts as cell-based, human. The following applies: 24 hours; 1 uM idebenone, 0.001% coffee cherry; FIG. 7. On the procedure: Cell cultures: A human skin fibroblast cell culture was obtained through the Coriell Cell Repository from the National Institute on Aging Cell Repository. The culture, AG07999, was established from a biopsy of a person. Culture media: Cells were grown in Minimal Essential Medium supplemented with 10% fetal bovine serum, 2 mM L-glutamine, 2 mM Glutamax I. […] All cultures were incubated at 37° C. with 5% CO2 in a humidified chamber. Seeding of cells: […] Experimental phase: […] On Day 5 after 24 hours of exposure to test conditions, the cells were isolated and the RNA isolated using the RT^2q PCR-grade RNA isolation kit (Superarray Bioscience Corporation). […] The RNA was quantified and examined for purity using the 260/280 nm read method in a μQuant spectrophotometer before use in the array. Performance of the qPCR Primer Assays: […] The assay was performed in compliance with manufacturer's guidelines and by recommended manufacturer's protocol as can be found on the World Wide Web at superarray.com/Manual/realtimePCR.pdf. […] Any values out of range of the threshold cycles or inconsistent within the assay were discarded from analysis. qPCR Primer Assay results: The results from assays were determined using the delta CT method, which uses comparisons of control genes and threshold cycles of genes of interest to generate relative expression values (this process is handled by the GeneX package).

With `COC1=C(OC)C(=O)C(CCCCCCCCCCO)=C(C)C1=O` [Idebenone, 6-(10-hydroxydecyl)-2,3-dimethoxy-5-methyl-1,4-benzoquin-one], the Level of telomerase in the assay on telomerase (donor four UVB + agent 4 hr, compared to UVB Tx Control) was −1.07; in the assay on telomerase (donor four UVB + agent 4 hr, compared to UnTx Control), 90.51; with telomerase (donor four UVB + agent Continuous, compared to UVB Tx Control), −1.00; in the assay with telomerase (donor four UVB + agent Continuous, compared to UnTx Control), 97.01; with telomerase (donor four idebenone Vs. person idebenone 4 hr) it was 1.46. Besides, the “less telomerase activity than untreated cells” value in the assay on telomerase (donor four cells given Idebenone) is given as “roughly 53%”. Further, the telomerase activity in the assay on telomerase (donor four cells given Idebenone and 1 MED UVB vs UVB stressed cells alone) is −1.7 fold; with telomerase (donor four cells given Idebenone and 1 MED UVB vs untreated cells) it was −2.4 fold; in the assay on telomerase (donor one cells given Idebenone and 1 MED UVB vs UVB treated age matched controls) it was −2.65 fold; in the assay on telomerase (donor one cells given Idebenone and 1 MED UVB vs untreated controls) it was “roughly −2.61 fold”. Besides, the “telomerase activity (summary in words)” value with telomerase (stressed (UVB) and unstressed cells) was “decreased level of telomerase activity”. Moreover, the TERF1 expression level entry in assay [1] is given as “effected”. Besides, the TERF2 expression level result in assay [1] is “effected”.

Source of the values: patent US20140079836A1, “METHODS AND COMPOSITIONS FOR ALTERING HEALTH, WELLBEING, AND LIFESPAN” (LifeSpan Extension, LLC, priority 2008, published 2014).
